Our source for the AC50, EC50 and IC50 values is ChEMBL document CHEMBL1201862, “PubChem BioAssay data set” (2004).

What is called AC50 is the concentration at which the activity in the assay is half-maximal. The term EC50 denotes the concentration needed to bring the measured effect to its halfway point. By IC50 is commonly meant the concentration at which inhibition is half-maximal.

One assay has as its target DNA topoisomerase (Yersinia pestis, UniProt A0A2S9PM60). Put plainly: Y. pestis Topo-I inhibitors, cleavage product readout, dose response, biochemical, cherry-pick (AID 588525).
For a further assay, the target named is Beta-galactosidase (Escherichia coli, UniProt Q8VNN2). Description: PubChem AID 485352. The assay is classed as functional.
Assay [1] addresses T1, Type-1 angiotensin II receptor (Homo sapiens, UniProt P30556).
T1 sequence (P30556 whole entry): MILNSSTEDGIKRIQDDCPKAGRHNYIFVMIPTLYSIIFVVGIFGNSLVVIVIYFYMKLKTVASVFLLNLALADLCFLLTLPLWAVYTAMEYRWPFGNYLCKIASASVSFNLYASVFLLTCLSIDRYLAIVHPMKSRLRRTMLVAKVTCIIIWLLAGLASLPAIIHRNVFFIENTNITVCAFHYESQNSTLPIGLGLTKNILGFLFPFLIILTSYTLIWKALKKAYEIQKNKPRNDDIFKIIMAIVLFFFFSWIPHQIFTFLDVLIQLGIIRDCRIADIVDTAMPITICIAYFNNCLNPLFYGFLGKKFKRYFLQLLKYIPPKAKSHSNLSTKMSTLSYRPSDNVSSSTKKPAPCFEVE
Put plainly: AT1 receptor antagonists, dose response, selectivity assay for APJ receptor antagonist project, cell-based, uHTS hits (AID 463214).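 Also: antagonist potency against angiotensin II stimulated AT1 response.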 Type of assay: functional.

Assay [2] is described as follows: Luminescence Cell-Based Dose Response HTS to Identify Activators of Luciferase Translation or Activity in H4 […] Cells. [Related pubchem assays: 1829 (Project Summary), 1814 (Primary HTS)]. Type of assay: functional.
The test system of a further assay is HEK293. Description: cells. The assay is classed as functional, cell-based. The conditions noted are these: Homo sapiens.
Assay [3] in a line: Luminescence Cell-Based Dose Confirmation HTS to Identify Activators of 5'UTR Stem-Loop Driven Alpha-Synuclein mRNA Translation in H4 Neuroglioblastoma Cells. [Related pubchem assays: 1829 (Project Summary), 1814 (Primary HTS)]. Type of assay: functional.
For assay [4], the target named is T2, Nuclear receptor subfamily 0 group B member 1 (Homo sapiens, UniProt P51843).
T2 sequence (P51843 whole entry): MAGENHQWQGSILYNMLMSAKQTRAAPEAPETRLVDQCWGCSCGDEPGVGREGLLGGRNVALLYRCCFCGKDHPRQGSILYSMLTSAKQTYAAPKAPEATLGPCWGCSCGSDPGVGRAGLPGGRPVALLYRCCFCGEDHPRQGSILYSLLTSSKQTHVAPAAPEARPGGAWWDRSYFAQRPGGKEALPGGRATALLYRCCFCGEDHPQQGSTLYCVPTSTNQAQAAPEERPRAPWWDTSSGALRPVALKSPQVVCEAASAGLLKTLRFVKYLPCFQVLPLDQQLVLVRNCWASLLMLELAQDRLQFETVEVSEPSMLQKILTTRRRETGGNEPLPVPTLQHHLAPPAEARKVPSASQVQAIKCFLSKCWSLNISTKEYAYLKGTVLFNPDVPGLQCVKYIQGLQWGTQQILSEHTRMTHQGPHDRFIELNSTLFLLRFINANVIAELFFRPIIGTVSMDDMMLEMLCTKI
Put plainly: Luminescence-based cell-based high throughput dose response assay for inhibitors of the orphan nuclear receptor subfamily 0, group B, member 1 (DAX1; NR0B1). [Related pubchem assays (depositor defined):AID504766, AID504790]. Type of assay: functional.

Assay [5] in a line: Luminescence Cell-Based Dose Response to Identify Activators of 5'UTR Stem-Loop Driven Prion Protein mRNA Translation in H4-C Neuroglioblastoma Cells. [Related pubchem assays: 1829 (Project Summary), 1814 (Primary HTS)]. The assay is classed as functional.
The nature of assay [6]: Luminescence Cell-Based Dose Confirmation to Identify Activators of 5'UTR Stem-Loop Driven Alpha-Synuclein mRNA Translation in H4 Neuroglioblastoma Cells. [Related pubchem assays: 1829 (Project Summary), 1814 (Primary HTS)]. Type of assay: functional.
Assay [7] is described as follows: Luminescence Cell-Based Dose Response to Identify Activators of Luciferase Translation or Activity in H4-C Neuroglioblastoma Cells. [Related pubchem assays: 1829 (Project Summary), 1814 (Primary HTS)]. The assay is classed as functional.
In another assay the test system is H4. Description: Luminescence Cell-Based Dose Response HTS to Identify Activators of 5'UTR Stem-Loop Driven Prion Protein mRNA Translation in H4 Neuroglioblastoma Cells. [Related pubchem assays: 1829 (Project Summary), 1814 (Primary HTS)]. The assay is classed as functional. Conditions: Homo sapiens.
Assay [8] is described as follows: HepG2 cell cytotoxicity, dose response, cytotoxicity control, ATP luminescence, cherry-pick, activator set 2 (AID 1053143). Type of assay: functional, cell-based.
In assay [9] the target is T3, Rac GTPase-activating protein 1 (Homo sapiens, UniProt Q9H0H5).
T3 sequence (Q9H0H5 whole entry): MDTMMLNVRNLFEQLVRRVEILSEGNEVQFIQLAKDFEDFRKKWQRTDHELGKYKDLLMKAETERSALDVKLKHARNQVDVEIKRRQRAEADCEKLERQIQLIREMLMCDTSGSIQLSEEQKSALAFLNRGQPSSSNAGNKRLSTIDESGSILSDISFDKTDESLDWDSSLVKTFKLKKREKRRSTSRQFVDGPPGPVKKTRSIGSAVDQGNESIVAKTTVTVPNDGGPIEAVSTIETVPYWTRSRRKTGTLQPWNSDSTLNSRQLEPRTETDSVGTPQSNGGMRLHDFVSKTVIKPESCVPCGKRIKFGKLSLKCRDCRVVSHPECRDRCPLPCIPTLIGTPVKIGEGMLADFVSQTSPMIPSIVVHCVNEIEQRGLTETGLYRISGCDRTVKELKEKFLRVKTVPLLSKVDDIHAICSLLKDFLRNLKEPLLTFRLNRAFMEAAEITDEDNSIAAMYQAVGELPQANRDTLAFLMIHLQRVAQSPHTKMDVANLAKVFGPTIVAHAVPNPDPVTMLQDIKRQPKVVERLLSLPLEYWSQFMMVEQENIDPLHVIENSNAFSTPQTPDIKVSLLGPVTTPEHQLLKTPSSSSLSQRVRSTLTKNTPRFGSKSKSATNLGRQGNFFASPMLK
Description: MgcRacGAP GTPase-activating activity inhibitors, confirmation, biochemical, ADP Hunter fluorescence, primary and confirmatory (AID 624330). The assay is classed as functional.

For the next assay, the target named is Large T antigen (Simian virus 40, UniProt P03070). The assay is classed as functional, Betapolyomavirus macacae.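 Also: Confirmatory-stage PubChem screen for compounds that inhibit SV40 T antigen.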
Assay [10] deals with Dual specificity tyrosine-phosphorylation-regulated kinase 1A (Rattus norvegicus, UniProt Q63470). Type of assay: biochemical, Homo sapiens.
Another assay has as its system CHO. Put plainly: cytotoxicity in TLR9-MyD88 CHO cells, dose response, cytotoxicity control for TLR9-MyD88 binding inhibitor project, cell-based, luminescence (AID 588339).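 Also: CHO cells stably coexpressing TLR9 and MyD88 fusions from primary screen; compound exposure lasted 48 hours before viability readout.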 Type of assay: functional, hamster. The conditions noted are these: Cricetulus griseus.
A further assay addresses Beta Lactamase (Pseudomonas aeruginosa, UniProt Q932Y6). Description: beta-lactamase reporter inhibitor potency, dose response, artefact control for TLR9-MyD88 binding inhibitor project, BLA reporter cells, FRET fluorescence (AID 588341).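 Also: cell based assay in CHO-K1 cells stably expressing beta-lactamase.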 Type of assay: cell-based.

The source made the active and inactive calls.

Chain of Beta Lactamase (Q932Y6 whole entry): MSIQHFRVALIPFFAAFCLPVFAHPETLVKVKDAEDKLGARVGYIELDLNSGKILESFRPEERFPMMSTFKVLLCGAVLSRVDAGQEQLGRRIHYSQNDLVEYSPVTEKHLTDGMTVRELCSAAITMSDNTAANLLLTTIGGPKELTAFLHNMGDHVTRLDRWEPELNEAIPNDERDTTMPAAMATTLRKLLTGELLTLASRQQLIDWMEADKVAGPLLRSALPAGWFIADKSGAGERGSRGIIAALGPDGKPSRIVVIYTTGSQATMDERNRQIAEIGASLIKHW
Chain of DNA topoisomerase (A0A2S9PM60 whole entry): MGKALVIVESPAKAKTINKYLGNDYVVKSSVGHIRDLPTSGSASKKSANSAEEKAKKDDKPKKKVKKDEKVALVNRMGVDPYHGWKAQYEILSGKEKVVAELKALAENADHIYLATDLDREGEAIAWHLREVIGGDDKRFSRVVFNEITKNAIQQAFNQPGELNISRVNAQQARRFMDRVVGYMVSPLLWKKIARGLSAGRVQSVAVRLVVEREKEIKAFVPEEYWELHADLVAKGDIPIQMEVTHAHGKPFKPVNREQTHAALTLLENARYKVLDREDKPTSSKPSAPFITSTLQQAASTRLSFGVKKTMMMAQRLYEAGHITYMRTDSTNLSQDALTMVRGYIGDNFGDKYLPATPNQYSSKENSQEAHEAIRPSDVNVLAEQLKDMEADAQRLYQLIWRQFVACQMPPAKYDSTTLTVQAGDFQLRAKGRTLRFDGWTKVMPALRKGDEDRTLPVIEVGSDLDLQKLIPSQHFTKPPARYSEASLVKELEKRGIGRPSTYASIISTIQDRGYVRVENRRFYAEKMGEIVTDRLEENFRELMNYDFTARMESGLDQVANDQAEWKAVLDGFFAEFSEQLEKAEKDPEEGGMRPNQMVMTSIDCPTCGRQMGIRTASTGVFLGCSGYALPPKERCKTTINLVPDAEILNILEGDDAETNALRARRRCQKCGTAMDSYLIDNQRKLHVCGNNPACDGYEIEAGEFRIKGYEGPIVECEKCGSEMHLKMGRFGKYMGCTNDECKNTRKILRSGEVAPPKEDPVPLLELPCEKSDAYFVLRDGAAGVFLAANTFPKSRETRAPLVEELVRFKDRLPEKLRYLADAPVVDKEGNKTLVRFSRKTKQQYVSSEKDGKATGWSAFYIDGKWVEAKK
Chain of Large T antigen (P03070 whole entry): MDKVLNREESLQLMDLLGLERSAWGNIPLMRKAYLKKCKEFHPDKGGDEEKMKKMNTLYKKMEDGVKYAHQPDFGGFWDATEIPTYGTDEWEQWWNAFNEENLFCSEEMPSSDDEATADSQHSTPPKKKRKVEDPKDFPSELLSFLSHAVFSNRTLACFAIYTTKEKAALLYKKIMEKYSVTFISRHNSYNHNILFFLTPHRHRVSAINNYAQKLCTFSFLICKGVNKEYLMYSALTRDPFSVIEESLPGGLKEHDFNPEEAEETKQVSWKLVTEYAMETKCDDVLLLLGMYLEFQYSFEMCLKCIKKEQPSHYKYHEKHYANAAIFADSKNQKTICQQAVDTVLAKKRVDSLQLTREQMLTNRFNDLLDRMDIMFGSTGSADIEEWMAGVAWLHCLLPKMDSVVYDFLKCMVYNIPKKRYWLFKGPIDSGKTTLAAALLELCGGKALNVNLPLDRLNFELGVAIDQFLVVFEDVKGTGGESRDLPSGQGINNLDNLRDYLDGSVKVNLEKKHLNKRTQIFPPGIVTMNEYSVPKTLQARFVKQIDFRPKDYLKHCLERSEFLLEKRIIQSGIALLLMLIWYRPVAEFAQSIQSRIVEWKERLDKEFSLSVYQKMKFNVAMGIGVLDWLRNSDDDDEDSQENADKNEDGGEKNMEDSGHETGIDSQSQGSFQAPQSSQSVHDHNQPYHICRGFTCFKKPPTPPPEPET
Chain of Beta-galactosidase (Q8VNN2 whole entry): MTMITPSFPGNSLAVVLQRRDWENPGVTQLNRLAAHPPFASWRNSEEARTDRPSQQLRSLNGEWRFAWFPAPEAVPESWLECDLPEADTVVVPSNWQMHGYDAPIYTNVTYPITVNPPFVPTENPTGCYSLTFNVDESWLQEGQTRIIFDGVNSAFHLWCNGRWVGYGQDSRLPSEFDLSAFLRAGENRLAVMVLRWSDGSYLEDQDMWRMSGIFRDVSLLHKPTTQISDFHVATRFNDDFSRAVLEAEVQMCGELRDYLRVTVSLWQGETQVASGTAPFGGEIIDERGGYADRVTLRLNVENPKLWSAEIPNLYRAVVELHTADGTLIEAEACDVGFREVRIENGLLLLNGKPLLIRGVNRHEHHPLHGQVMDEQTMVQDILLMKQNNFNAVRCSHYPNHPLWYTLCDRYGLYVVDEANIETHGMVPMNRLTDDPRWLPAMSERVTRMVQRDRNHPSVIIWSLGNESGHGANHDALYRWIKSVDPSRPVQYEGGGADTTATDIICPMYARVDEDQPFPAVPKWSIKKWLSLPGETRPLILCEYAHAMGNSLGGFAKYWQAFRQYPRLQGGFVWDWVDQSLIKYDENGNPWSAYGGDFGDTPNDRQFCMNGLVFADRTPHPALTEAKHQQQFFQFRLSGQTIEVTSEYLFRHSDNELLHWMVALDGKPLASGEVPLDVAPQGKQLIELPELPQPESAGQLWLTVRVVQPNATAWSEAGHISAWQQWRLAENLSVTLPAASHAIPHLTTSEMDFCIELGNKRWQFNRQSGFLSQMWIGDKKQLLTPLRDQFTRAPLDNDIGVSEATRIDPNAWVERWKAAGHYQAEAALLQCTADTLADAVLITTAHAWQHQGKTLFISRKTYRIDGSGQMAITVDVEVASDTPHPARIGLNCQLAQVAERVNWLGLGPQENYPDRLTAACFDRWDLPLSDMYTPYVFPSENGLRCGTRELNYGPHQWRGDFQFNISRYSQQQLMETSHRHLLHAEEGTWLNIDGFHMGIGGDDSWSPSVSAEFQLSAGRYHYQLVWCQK

Regarding `Cc1ccc(-n2c(C)cc(C(=O)Cn3nc(C(=O)O)c4ccccc4c3=O)c2C)cc1`, at DNA topoisomerase, the AC50 is 5.3 µM (active).

For the compound `CN1/C(=c2/s/c(=C3/C(=O)N(c4ccccc4)N=C3Nc3ccccc3)n(C)c2=O)C(C)(C)c2ccccc21`, the EC50 on Beta-galactosidase is 39.9 µM (active). For the same compound, the IC50 in [1] was 27 µM (not active).

On to `O=C(Nc1ncccc1O)c1ccc2c(c1)OCCO2`, for which the EC50 in assay [2] was 0.155 µM (active); in assay [3], 0.185 µM (active); in [5], 7.24 µM (active); in assay [6], 0.329 µM (active); in assay [7], > 12 µM (not active); with H4, 0.139 µM (active). In addition, the IC50 with HEK293 is 1.59 µM (active); in assay [4] it was > 67.5 µM (inactive). In addition, the AC50 in assay [8] is 12 µM (active).

For `C=CCSC1=NC(=O)/C(=C/c2cccs2)S1`, the IC50 in assay [9] is 29.7 µM (active); at Large T antigen it was 40.8 µM (active). Besides, the AC50 in assay [10] is 8.3 µM (active).

Turning to `O=C(C1=NN(c2ccccc2)C2C(=O)N(c3ccc(Cl)cc3)C(=O)C12)c1ccccc1` (configuration not stated), the IC50 was > 49.7 µM (inactive) in the assay with CHO and 11.8 µM (inactive) at Beta Lactamase.
